# Laboratory results: ChEMBL document CHEMBL1147764, “Leptostatin: a synthetic hybrid of the cytotoxic polyketides callystatin A and leptomycin B” (Bioorg Med Chem Lett, 2006)
# Tested on: HCT-116
# Assay: Cytotoxicity against HCT116 human colon cancer cell line
# Format: functional, cell-based
row,SMILES,IC50 [nM]
1,CCC(=C/[C@H](C)C/C=C/C(C)=C/[C@@H](C)C(=O)[C@@H](C)[C@H](O)[C@@H](C)CC)/C=C/[C@@H]1OC(=O)C=C[C@@H]1C,3
2,CCC(=C/[C@H](C)C/C=C/C(C)=C/[C@@H](C)C(=O)[C@@H](C)[C@H](O)[C@@H](C)CC)/C=C/[C@H]1CC=CC(=O)O1 [CALLYSTATIN A],0.03
3,CCC(=C/[C@H](C)C/C=C/C(C)=C/[C@@H](C)C(=O)[C@@H](C)[C@H](O)[C@@H](C)CC)/C=C/[C@@H]1OC(=O)C=C[C@H]1C,30
4,CCC(=C/[C@H](C)C/C=C/C(C)=C/[C@@H](C)C(=O)[C@@H](C)[C@H](O)[C@@H](C)CC)/C=C/[C@H]1OC(=O)C=C[C@@H]1C,2
5,CCC(=C/[C@H](C)C/C=C/C(C)=C/[C@@H](C)C(=O)[C@@H](C)[C@H](O)[C@@H](C)CC)/C=C/[C@H]1OC(=O)C=C[C@H]1C,0.2
